The target of this experiment is T1, Calpain-1 catalytic subunit (Homo sapiens, UniProt P07384).
T1 sequence (P07384 whole entry): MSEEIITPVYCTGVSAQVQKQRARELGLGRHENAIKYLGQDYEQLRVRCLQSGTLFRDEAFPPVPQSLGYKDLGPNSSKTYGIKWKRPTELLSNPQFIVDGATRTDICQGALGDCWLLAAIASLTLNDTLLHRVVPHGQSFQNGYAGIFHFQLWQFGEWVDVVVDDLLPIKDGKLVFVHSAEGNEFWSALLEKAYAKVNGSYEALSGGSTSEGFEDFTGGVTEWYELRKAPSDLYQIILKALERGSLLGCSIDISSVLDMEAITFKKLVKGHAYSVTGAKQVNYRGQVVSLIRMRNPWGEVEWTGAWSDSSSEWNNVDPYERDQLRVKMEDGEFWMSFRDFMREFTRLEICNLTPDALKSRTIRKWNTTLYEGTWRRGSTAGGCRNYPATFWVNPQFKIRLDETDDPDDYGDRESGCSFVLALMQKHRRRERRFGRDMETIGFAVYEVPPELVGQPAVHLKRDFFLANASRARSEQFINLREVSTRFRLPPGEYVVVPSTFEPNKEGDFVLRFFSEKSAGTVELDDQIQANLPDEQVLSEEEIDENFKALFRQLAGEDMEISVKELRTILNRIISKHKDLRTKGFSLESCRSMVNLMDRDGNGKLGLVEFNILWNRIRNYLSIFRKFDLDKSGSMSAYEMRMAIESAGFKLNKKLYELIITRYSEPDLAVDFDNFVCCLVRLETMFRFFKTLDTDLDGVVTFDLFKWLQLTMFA
Kind of experiment: Inhibitory activity against human Calpain 1 isolated from erythrocytes. It counts as cell-free.

`O=CC(Cc1ccccc1)NC(=O)c1ccccc1/C=C/c1cccc2ccccc12` (stereo unspecified) showed a Ki of 15 nM.

(Values after ChEMBL document CHEMBL1145789, “Benzoylalanine-derived ketoamides carrying vinylbenzyl amino residues: discovery of potent water-soluble calpain inhibitors with oral bioavailability” (J Med Chem, 2003).)
